The source made the active and inactive calls. No rule for the calls is given here.
System: CCRIS mutagenicity, Ames/micronucleus/aberration tests
Assay: CCRIS mutagenicity studies
Conditions: Test System: AMES SALMONELLA TYPHIMURIUM
[1] = Strain/Indicator: TA98, Metabolic Activation: NONE, Method: STANDARD PLATE
[2] = Strain/Indicator: TA98, Metabolic Activation: RAT, LIVER, S-9, AROCLOR 1254, Method: STANDARD PLATE
[3] = Strain/Indicator: TA100, Metabolic Activation: RAT, LIVER, S-9, AROCLOR 1254, Method: STANDARD PLATE
[4] = Strain/Indicator: TA100, Metabolic Activation: NONE, Method: STANDARD PLATE
[5] = Strain/Indicator: TA1535, Metabolic Activation: NONE, Method: STANDARD PLATE
[6] = Strain/Indicator: TA1537, Metabolic Activation: NONE, Method: STANDARD PLATE
[7] = Strain/Indicator: TA98, Metabolic Activation: NONE, Method: PREINCUBATION
[8] = Strain/Indicator: TA98, Metabolic Activation: RAT, LIVER, S-9, AROCLOR 1254 (10%), Method: PREINCUBATION
[9] = Strain/Indicator: TA100, Metabolic Activation: NONE, Method: PREINCUBATION
[10] = Strain/Indicator: TA1535, Metabolic Activation: HAMSTER, LIVER, S-9, AROCLOR 1254 (10%), Method: PREINCUBATION
[11] = Strain/Indicator: TA1535, Metabolic Activation: NONE, Method: PREINCUBATION
[12] = Strain/Indicator: TA1535, Metabolic Activation: RAT, LIVER, S-9, AROCLOR 1254 (10%), Method: PREINCUBATION
[13] = Strain/Indicator: TA1537, Metabolic Activation: NONE, Method: PREINCUBATION

c1ccc2c(c1)cc1c3c2ccc2cccc(c23)C1
mutagenic call [1]: inactive; negative
mutagenic call [2]: active; positive
mutagenic call [3]: active; positive

CN(C)CCCN1c2ccccc2CCc2ccccc21
mutagenic call [1]: inactive; negative
mutagenic call [2]: inactive; negative
mutagenic call [4]: inactive; negative
mutagenic call [3]: inactive; negative
mutagenic call [5]: inactive; negative
mutagenic call (Strain/Indicator: TA1535, Metabolic Activation: RAT, LIVER, S-9, AROCLOR 1254, Method: STANDARD PLATE): inactive; negative
mutagenic call [6]: inactive; negative
mutagenic call (Strain/Indicator: TA1537, Metabolic Activation: RAT, LIVER, S-9, AROCLOR 1254, Method: STANDARD PLATE): inactive; negative

CCC(C)Nc1snc2ccccc12 (stereo not drawn)
mutagenic call [1]: inactive; negative
mutagenic call (Strain/Indicator: TA98, Metabolic Activation: S-9, Method: STANDARD PLATE): inactive; negative
mutagenic call [4]: inactive; negative
mutagenic call (Strain/Indicator: TA100, Metabolic Activation: S-9, Method: STANDARD PLATE): inactive; negative
mutagenic call [5]: inactive; negative
mutagenic call (Strain/Indicator: TA1535, Metabolic Activation: S-9, Method: STANDARD PLATE): inactive; negative
mutagenic call [6]: inactive; negative
mutagenic call (Strain/Indicator: TA1537, Metabolic Activation: S-9, Method: STANDARD PLATE): inactive; negative

CC(N)Cc1ccccc1 (stereo not drawn)
mutagenic call (Strain/Indicator: TA98, Metabolic Activation: HAMSTER, LIVER, S-9, AROCLOR 1254 (4%, 10% OR 20%), Method: PREINCUBATION): inactive; negative
mutagenic call (Strain/Indicator: TA98, Metabolic Activation: HAMSTER, LIVER, S-9, AROCLOR 1254 (4, 10 OR 20%), Method: PREINCUBATION): inactive; negative
mutagenic call [7]: inactive; negative
mutagenic call [8]: inactive; negative
mutagenic call (Strain/Indicator: TA100, Metabolic Activation: HAMSTER, LIVER, S-9, AROCLOR 1254 (10%), Method: PREINCUBATION): inactive; negative
mutagenic call [9]: inactive; negative
mutagenic call (Strain/Indicator: TA100, Metabolic Activation: RAT, LIVER, S-9, AROCLOR 1254 (10%), Method: PREINCUBATION): inactive; negative
mutagenic call [10]: inactive; negative
mutagenic call [11]: inactive; negative
mutagenic call [12]: inactive; negative
mutagenic call (Strain/Indicator: TA1537, Metabolic Activation: HAMSTER, LIVER, S-9, AROCLOR 1254 (10%), Method: PREINCUBATION): inactive; negative
mutagenic call [13]: inactive; negative
mutagenic call (Strain/Indicator: TA1537, Metabolic Activation: RAT, LIVER, S-9, AROCLOR 1254 (10%), Method: PREINCUBATION): inactive; negative

Nc1ccc(F)cc1F
mutagenic call (Strain/Indicator: TA97, Metabolic Activation: HAMSTER, LIVER, S-9, AROCLOR 1254 (10%), Method: PREINCUBATION): inactive; negative
mutagenic call (Strain/Indicator: TA97, Metabolic Activation: HAMSTER, LIVER, S-9, AROCLOR 1254 (30%), Method: PREINCUBATION): inactive; negative
mutagenic call (Strain/Indicator: TA97, Metabolic Activation: NONE, Method: PREINCUBATION): inactive; negative
mutagenic call (Strain/Indicator: TA97, Metabolic Activation: RAT, LIVER, S-9, AROCLOR 1254 (10%), Method: PREINCUBATION): inactive; negative
mutagenic call (Strain/Indicator: TA97, Metabolic Activation: RAT, LIVER, S-9, AROCLOR 1254 (30%), Method: PREINCUBATION): inactive; negative
mutagenic call (Strain/Indicator: TA98, Metabolic Activation: HAMSTER, LIVER, S-9, AROCLOR 1254 (10%), Method: PREINCUBATION): inactive; negative
mutagenic call (Strain/Indicator: TA98, Metabolic Activation: HAMSTER, LIVER, S-9, AROCLOR 1254 (30%), Method: PREINCUBATION): active; positive
mutagenic call [7]: inactive; negative
mutagenic call [8]: inactive; negative
mutagenic call (Strain/Indicator: TA98, Metabolic Activation: RAT, LIVER, S-9, AROCLOR 1254 (30%), Method: PREINCUBATION): inactive; negative
mutagenic call (Strain/Indicator: TA100, Metabolic Activation: HAMSTER, LIVER, S-9, AROCLOR 1254 (5 OR 10%), Method: PREINCUBATION): inactive; negative
mutagenic call (Strain/Indicator: TA100, Metabolic Activation: HAMSTER, LIVER, S-9, AROCLOR 1254 (30%), Method: PREINCUBATION): active; positive
mutagenic call [9]: inactive; negative
mutagenic call (Strain/Indicator: TA100, Metabolic Activation: RAT, LIVER, S-9, AROCLOR 1254 (5, 10 OR 30%), Method: PREINCUBATION): inactive; negative
mutagenic call [10]: inactive; negative
mutagenic call (Strain/Indicator: TA1535, Metabolic Activation: HAMSTER, LIVER, S-9, AROCLOR 1254 (30%), Method: PREINCUBATION): inactive; negative
mutagenic call [11]: inactive; negative
mutagenic call [12]: inactive; negative
mutagenic call (Strain/Indicator: TA1535, Metabolic Activation: RAT, LIVER, S-9, AROCLOR 1254 (30%), Method: PREINCUBATION): inactive; negative

Brc1c(Br)c(Br)c(Br)c(Br)c1Br
mutagenic call (Strain/Indicator: TA98, Metabolic Activation: HAMSTER, LIVER, S-9, AROCLOR 1254, Method: PREINCUBATION): inactive; negative
mutagenic call [7]: inactive; negative
mutagenic call (Strain/Indicator: TA98, Metabolic Activation: RAT, LIVER, S-9, AROCLOR 1254, Method: PREINCUBATION): inactive; negative
mutagenic call (Strain/Indicator: TA100, Metabolic Activation: HAMSTER, LIVER, S-9, AROCLOR 1254, Method: PREINCUBATION): inactive; negative
mutagenic call [9]: inactive; negative
mutagenic call (Strain/Indicator: TA100, Metabolic Activation: RAT, LIVER, S-9, AROCLOR 1254, Method: PREINCUBATION): inactive; negative
mutagenic call (Strain/Indicator: TA1535, Metabolic Activation: HAMSTER, LIVER, S-9, AROCLOR 1254, Method: PREINCUBATION): inactive; negative
mutagenic call [11]: inactive; negative
mutagenic call (Strain/Indicator: TA1535, Metabolic Activation: RAT, LIVER, S-9, AROCLOR 1254, Method: PREINCUBATION): inactive; negative
mutagenic call (Strain/Indicator: TA1537, Metabolic Activation: HAMSTER, LIVER, S-9, AROCLOR 1254, Method: PREINCUBATION): inactive; negative
mutagenic call [13]: inactive; negative
mutagenic call (Strain/Indicator: TA1537, Metabolic Activation: RAT, LIVER, S-9, AROCLOR 1254, Method: PREINCUBATION): inactive; negative
